Where two headings read alike, the source gives them in different places.

In one data set the test system is A-549 lung carcinoma. The data set can be described thus: MTT cytotoxicity assay, A-549. The following applies: for IC50: Homo sapiens, A549, […], read-out: Cytotoxicity ED50, A-549. In general terms: Tetrazolium dyes change colour on reduction, which living cells bring about.
Another data set has as its system SKMEL-5 melanoma. The data set can be described thus: MTT cytotoxicity assay, SKMEL-5. The following applies: for IC50: Homo sapiens, SK-MEL-5, […], read-out: Cytotoxicity ED50, SKMEL-5.
A further data set relates to MLM melanoma. Put plainly: MTT cytotoxicity assay, MLM. The conditions noted are these: for IC50: read-out: Cytotoxicity ED50, MLM.
The test system of data set [1] is five cancer cell cultures. Put plainly: MTT cytotoxicity assay, five cancer cell cultures taken together. The following applies: for cytotoxicity (in words): five cancer cell lines.
The subject of the next data set is MCF-7 breast carcinoma. The data set can be described thus: MTT cytotoxicity assay, MCF-7. The following applies: for IC50: Homo sapiens, MCF7, […], read-out: Cytotoxicity ED50, MCF-7.
The subject of data set [2] is HT-29 colon adenocarcinoma. The data set can be described thus: MTT cytotoxicity assay, HT-29. The following applies: for IC50: Homo sapiens, HT-29, […], read-out: Cytotoxicity ED50, HT-29.
A further data set has as its system tubulin. Put plainly: Inhibition of tubulin polymerization (turbidimetry). The conditions noted are these: for IC50: second series (Tables V-VII, IX), read-out: Inhibition of Tubulin Polymerization IC50 (±S.D.). In kind it is biochemical, bovine.
[3] abbreviates: read-out: cytotoxicity ED50, five cancer cell lines.

As for `COc1cc(/C=C/c2ccc(C(C)C)cc2)cc(OC)c1OC` [16f, (E)-[4-(2-Propyl)phenyl]-2-(3,4,5-trimethoxyphenyl)ethene], the IC50 in the data set with A-549 lung carcinoma was 9.8 µM; with SKMEL-5 melanoma, 11.1 µM; with MLM melanoma it was more than 25 µM; in data set [1] (read-out: cytotoxicity ED50), approximately 100 nM; with MCF-7 breast carcinoma it was 18.4 µM; in data set [2] it was 6.8 µM.
As to `CCOc1ccc(CCc2cc(OC)c(OC)c(OC)c2)cc1` [17a, 1-(4-Ethoxyphenyl)-2-(3,4,5-trimethoxyphenyl)ethane], the IC50 in the data set on A-549 lung carcinoma was 0.19 µM; with SKMEL-5 melanoma it was 0.17 µM; with MLM melanoma, 2.7 µM; with tubulin, 10 µM; in data set [1] (read-out: cytotoxicity ED50, in at least four cell lines) it was less than 1000 nM; in the data set with MCF-7 breast carcinoma, 0.19 µM. Besides, the IC50 in data set [2] turned out to be 0.18 µM.
Regarding `CCN(CC)CCOC(=O)/C(=C/c1cccc(OC)c1)c1cc(OC)c(OC)c(OC)c1` [24f, (E)-(2-N,N-Diethylamino)ethyl-3-(3-methoxyphenyl)-2-(3,4,5-trimethoxyphenyl)-prop-2-enoate], the IC50 in the data set on A-549 lung carcinoma is 7.7 µM; in the data set with SKMEL-5 melanoma, 6.7 µM; in the data set on MLM melanoma, more than 25 µM; in the data set on tubulin it was more than 40 µM; in the data set with MCF-7 breast carcinoma, 10.4 µM; in data set [2], more than 25 µM. In addition, the “cytotoxicity (in words)” value in data set [1] is given as “did not show considerable cytotoxicity”.
Regarding `COC(=O)/C(=C/c1ccc(OC)cc1)c1cc(OC)c(OC)c(OC)c1` [compound 24a, (E)-Methyl 3-(4-methoxyphenyl)-2-(3,4,5-trimethoxyphenyl)-prop-2-enoate], the IC50 in the data set on A-549 lung carcinoma was 0.011 µM; in the data set with SKMEL-5 melanoma it was 0.0064 µM; in the data set on MLM melanoma, 9.6 µM; in the data set on tubulin it was more than 40 µM; in data set [1] (read-out: cytotoxicity ED50, A-549, MCF-7, HT-29, and SKMEL-5 cell cultures) it was 6.4 to 50 nM; with MCF-7 breast carcinoma it was 0.02 µM. Moreover, the IC50 in data set [2] was 0.0095 µM.
With `COc1cc(/C=C\c2ccc(O[Si](C)(C)C(C)(C)C)cc2)cc(OC)c1OC` [5m, (Z)-1-[(4-t-Butyldimethylsilyloxy)phenyl]-2-(3,4,5-trimethoxyphenyl)ethene], the IC50 in the data set on A-549 lung carcinoma is 11 µM; in the data set on SKMEL-5 melanoma, 7.59 µM; in the data set on MLM melanoma, 17.2 µM; in the data set with MCF-7 breast carcinoma, 7.29 µM; in data set [2], 10.6 µM. Besides, in data set [1], the “cytotoxicity (in words)” value is “decreased the activity drastically”.
As for `COc1cc(/C=C\c2ccc([N+](=O)[O-])cc2)cc(OC)c1OC` [5l, (Z)-1-(4-Nitrophenyl)-2-(3,4,5-trimethoxyphenyl)ethene], the IC50 (in the data set with A-549 lung carcinoma; in the data set with SKMEL-5 melanoma; in the data set with MLM melanoma; in the data set with MCF-7 breast carcinoma; in data set [2]) was more than 25 µM in each case. Besides, the “cytotoxicity (in words)” value in data set [1] is “decreased the activity drastically”.
As for `COc1cc(/C=C/c2ccc(SC)cc2)cc(OC)c1OC` [16c], the IC50 with A-549 lung carcinoma is 0.47 µM; with SKMEL-5 melanoma, 0.28 µM; with MLM melanoma it was 7.3 µM; in data set [1] (read-out: cytotoxicity ED50, in at least three cell lines), approximately 100 nM; in the data set on MCF-7 breast carcinoma it was 0.059 µM; in data set [2], 0.083 µM.
Turning to `COc1cc(/C=C\c2ccccn2)cc(OC)c1OC` [5k, (Z)-1-(2-Pyridyl)-2-(3,4,5-trimethoxyphenyl)ethene], the IC50 in the data set on A-549 lung carcinoma was more than 25 µM; with SKMEL-5 melanoma, more than 25 µM; in the data set with MLM melanoma it was more than 25 µM; in data set [1] (setting [3]), more than 10000 nM; with MCF-7 breast carcinoma, more than 25 µM; in data set [2], more than 25 µM.
Consider `COc1cc(/C=C\c2ccc(C(C)C)cc2)cc(OC)c1OC` [compound 15f, (Z)-[4-(2-Propyl)phenyl]-2-(3,4,5-trimethoxyphenyl)ethene], for which the IC50 in the data set on A-549 lung carcinoma is 0.0066 µM; in the data set on SKMEL-5 melanoma, 0.00047 µM; in the data set on MLM melanoma, 0.07 µM; in data set [1] (read-out: cytotoxicity ED50), 0.47 to 70 nM; in the data set on MCF-7 breast carcinoma, 0.0014 µM; in data set [2] it was 0.0024 µM.
With `COc1ccc(/C=C\c2ccc(OC)c(OC)c2)cc1` [15h, (Z)-(4-Methoxyphenyl)-2-(3,4-dimethoxyphenyl)ethene], the IC50 is more than 25 µM in the data set with A-549 lung carcinoma; more than 25 µM in the data set on SKMEL-5 melanoma; more than 25 µM in the data set with MLM melanoma; more than 25000 nM in data set [1] (setting [3]); more than 25 µM with MCF-7 breast carcinoma; more than 25 µM in data set [2].
Take `COc1cc(/C=C\c2ccncc2)cc(OC)c1OC` [5i, (Z)-1-(4-Pyridyl)-2-(3,4,5-trimethoxyphenyl)ethene]: the IC50 was 14.2 µM in the data set on A-549 lung carcinoma; 14.4 µM in the data set on SKMEL-5 melanoma; more than 25 µM in the data set with MLM melanoma; more than 10000 nM in data set [1] (setting [3]); 17 µM with MCF-7 breast carcinoma; 12.9 µM in data set [2].
With `COc1cc(/C=C\c2ccc(SC)cc2)cc(OC)c1OC` [compound 15c, (Z)-1-(4-Methylthiophenyl)-2-(3,4,5-trimethoxyphenyl)ethene], the “cytotoxicity relative to parent (in words)” value in the data set on A-549 lung carcinoma (A-549) and with MLM melanoma (MLM) was “as cytotoxic as the parent compound” throughout. Further, the IC50 with A-549 lung carcinoma was 0.00019 µM; in the data set on SKMEL-5 melanoma, 4e-06 µM; with MLM melanoma, 0.0033 µM; in the data set on tubulin it was 6.2 µM; in the data set on MCF-7 breast carcinoma, 0.0054 µM; in data set [2] it was 1.8e-05 µM. Moreover, the “cytotoxicity relative to 5a (in words)” value with SKMEL-5 melanoma (SKMEL-5 cells) was “two orders of magnitude more potent”; with MCF-7 breast carcinoma (MCF cell culture) it was “about one order of magnitude less cytotoxic than 5a”; in data set [2] (HT-29 cells) it was “about one order of magnitude more potent”.
As to `COc1cc(CCc2cc(OC)c(OC)c(OC)c2)cc(OC)c1` [compound 8s], the IC50 (with A-549 lung carcinoma; with SKMEL-5 melanoma; in the data set with MLM melanoma; in the data set with MCF-7 breast carcinoma; in data set [2]) was more than 25 µM in each case. In addition, the “inhibition of tubulin polymerization (in words)” value in the data set with tubulin is reported as “lower activity”.
Consider `CCOc1ccc(/C=C/c2cc(OC)c(OC)c(OC)c2)cc1` [16a], for which the IC50 in the data set with A-549 lung carcinoma was 0.17 µM; in the data set with SKMEL-5 melanoma, 1.17 µM; with MLM melanoma, 0.22 µM; in data set [1] (read-out: cytotoxicity ED50) it was approximately 100 nM; in the data set on MCF-7 breast carcinoma, 0.75 µM; in data set [2] it was 1.49 µM.
As for `COc1cc(/C=C\c2ccc(O)cc2)cc(OC)c1OC` [compound 5o, (Z)-1-(4-Hydroxyphenyl)-2-(3,4,5-trimethoxyphenyl)ethene], the IC50 was determined as 12.7 µM with A-549 lung carcinoma; 2.27 µM with SKMEL-5 melanoma; 12.6 µM in the data set with MLM melanoma; 5.7 µM in the data set on MCF-7 breast carcinoma; 1.75 µM in data set [2]. Besides, in data set [1], the “cytotoxicity (in words)” value was “decreased the activity drastically”.
For `COc1ccc(C2Cc3cc(OC)c(OC)c(OC)c3C2=O)cc1` (centres unmarked) [compound 34, 2-(4-Methoxyphenyl)-4,5,6-trimethoxyindan-3-one], the IC50 in the data set with A-549 lung carcinoma is more than 25 µM; in the data set with SKMEL-5 melanoma, more than 25 µM; in the data set with MLM melanoma, more than 25 µM; in the data set with tubulin it was more than 40 µM; with MCF-7 breast carcinoma, more than 25 µM; in data set [2] it was more than 25 µM.
For `COc1cc(/C=C\c2cccnc2)cc(OC)c1OC` [5j, (Z)-1-(3-Pyridyl)-2-(3,4,5-trimethoxyphenyl)ethene], the IC50 with A-549 lung carcinoma is 13.7 µM; in the data set on SKMEL-5 melanoma, 6 µM; with MLM melanoma it was more than 25 µM; in data set [1] (setting [3]) it was more than 10000 nM; in the data set on MCF-7 breast carcinoma it was 14.7 µM; in data set [2] it was 9.8 µM.

(Values after US5430062A, “Stilbene derivatives as anticancer agents” (priority 1993, dated 1995).)
